Laboratory results reported in patent US12459938B2, “ORAI channel inhibitors” (Beth Israel Deaconess Medical Center, Inc., priority 2019, dated 2025).

Tests used:
Type in all cases: cell-based
NFAT = NFAT activation assay (luciferase reporter, PMA and ionomycin); conditions: Homo sapiens; 10 μM compound; Jurkat cells; 15 nM PMA and 0.5 μM ionomycin; 18 hours; read-out: Activity 10 μM (% inhibition of NFAT luciferase luminescence)
Procedure: Jurkat cells (BPS Bioscience catalog No. 60621) were seeded at 40,000 cells per well into white clear-bottom 96-well microplate in 80 μl of growth medium without Geneticin. 10 μl of testing compounds (final 10 μM) were added to each well and preincubated with cells for half an hour. Then 10 μl of PMA and ionomycin mixture were added to each well to make the final concentration of 15 nM PMA and 0.5 μM ionomycin. Cells were incubated at 37° C. and 5% CO2 incubator for 18 hours. After treatment, cells were lysed and the luciferase assay was performed using ONE-Step luciferase assay system by adding 100 μl of One-Step Luciferase reagent (BPS Bioscience catalog No. 60690) per well followed by rocking at room temperature for about 30 minutes. Luminescence was measured using a luminometer (BioTek Synergym™ 2 microplate reader). The percent luminescence in the presence of each compound was calculated according to the following equation: % Luminescence=(L−Lb)/(Lt−Lb), where L=the luminescence intensity in the presence of the compound, Lb=the luminescence intensity in the absence of cells, and Lt=the luminescence intensity in the absence of the compound. The percent inhibition was calculated by: % inhibition=100−(% Luminescence).

[1] = system: Rat mast cells (RBL-2H3 cells); assay: Calcium influx assay (Fluo-4NW, thapsigargin store depletion, Ca2+ re-addition); conditions: control = DMSO, read-out: Fluo-4NW fluorescence (Ca2+ influx), % of control; for activity at 1 µM: 1 μM compound; for activity at 10 µM: 10 μM compound
Procedure: Rat mast cells (RBL-2H3 cells) (ATCC) were seeded in 96-well plate at 4×10^4 cells per well in DMEM-supplemented with 2% FBS and allowed to adhere overnight. Culture medium was then replaced with 50 μl of Ca^2+-free Tyrode buffer to load Ca^2+-probe Fluo-4NW (Molecular Probe, Thermo Fisher, MA, USA) per manufacturer instruction. A testing compound at indicated concentrations was supplied during the probe loading from the beginning. Cells were incubated in the presence or absence of a testing compound for 60 minutes in the Ca^2+-free medium at 37° C. During the last 5 minutes of incubation, cells were treated with 1 μM thapsigargin (Tg, Sigma Aldrich) to deplete [Ca^2+]ER, 20 mM CaCl2 in normal saline solution was supplemented back to the [Ca^2+]ER-depleted cells to have 2 mM as final concentration. Culture medium was removed 1 minute after Ca^2+ reloading, and changes in Fluo-4NW fluorescence (RFU) were recorded with the multi-mode plate reader (FilterMax F5, Molecular Devices/Thermo Fisher Scientific, MA, USA) at an excitation wavelength of 485 nm and an emission wavelength of 535 nm. The inhibitory activity of the tested compound was presented as % of control (DMSO).

TNF-α = TNF-α release from rat mast cells (ELISA); conditions: Mast cell, RBL rat mast cells, control = DMSO; for activity at 1 µM: 1 μM compound; for activity at 10 µM: 10 μM compound
Procedure: (§1) [Ca^2+]ER in RBL (ATCC) rat mast cells were depleted by Tg in the presence of a test compound. Then […] DMEM-2% FBS (containing 5 mM Ca^2+) was supplemented back in the presence of the corresponding concentration of MCS-01.
(§2) Thirty minutes after replenishing Ca^2+ the culture supernatant was collected for MC degranulation and cytokine release. Degranulation was measured as percent secreted β-hexosaminidase (β-Hex) according to the protocol of the assay kit (Sigma-Aldrich, MO, USA). At this time point TNF-α was also measured using ELISA kit (R&D Systems, MN, USA).
The inhibitory activity of the tested compound in the TNF-α assay was presented as % of control (DMSO).

RBL rat mast cells = assay: Degranulation of rat mast cells (secreted β-hexosaminidase); conditions: Mast cell, 0.5 h, Tg depletion, 30 minutes after replenishing Ca2+
Procedure: as §1, §2

IL-2 = assay: Interleukine-2 (IL-2) assay (ELISA, PMA and TG stimulated); conditions: Human Jurkat T cells; PMA (10 nM) and TG (100 nM); 8 hours; read-out: IC50 (IL-2 levels)
Procedure: Human Jurkat T cells (ATCC) were plated in Dubelcco's Modified Eagle Medium (DMEM) with 1% FBS in a 96 well plate at a density of 1×10^6 cells/well. Cells were treated with a testing compound at different concentrations and stimulated by PMA (10 nM) and TG (100 nM). The treated cells were incubated at 8 hours. The supernatants were collected and assayed for IL-2 levels by ELISA according to the manufacturer's protocols. The IC50 of Example 2 was determined to be 3 μM.

Structure (SMILES)	inhibition at 10 µM (NFAT) [%]	activity at 1 µM [1] [%]	activity at 10 µM [1] [%]	activity at 1 µM (TNF-α) [%]	activity at 10 µM (TNF-α) [%]	IC50 (RBL rat mast cells) [nM]	IC50 (IL-2) [nM]
O=C(Nc1c(F)cncc1F)c1cn(CC2CCC2)c2ccccc12 [Example 7, 1-(cyclobutylmethyl)-N-(3,5-difluoropyridin-4-yl)-1H-indole-3-carboxamide]	51 to 75	85	80	–	–	–	–
O=C(Nc1c(F)cccc1F)c1cn(CC2CC2)c2ccccc12 [Example 1, 1-(cyclopropylmethyl)-N-(2,6-difluorophenyl)-1H-indole-3-carboxamide]	51 to 75	75	42	–	–	–	–
Cc1cnccc1NC(=O)c1cn(CC2CC2)c2ccccc12 [Example 4, 1-(cyclopropylmethyl)-N-(3-methylpyridin-4-yl)-1H-indole-3-carboxamide]	51 to 75	61	44	–	–	–	–
O=C(Nc1ccncc1F)c1cn(CC2CCC2)c2ccccc12 [Example 8, 1-(cyclobutylmethyl)-N-(3-fluoropyridin-4-yl)-1H-indole-3-carboxamide]	> 75	50	25	79	51	–	–
Cc1cnccc1NC(=O)c1cn(CC2CCC2)c2ccccc12 [Example 9, 1-(cyclobutylmethyl)-N-(3-methylpyridin-4-yl)-1H-indole-3-carboxamide]	> 75	81	65	–	–	–	–
O=C(Nc1c(F)cccc1Cl)c1cn(CC2CC2)c2ccccc12 [Example 2, N-(2-chloro-6-fluorophenyl)-1-(cyclopropylmethyl)-1H-indole-3-carboxamide]	–	46	14	57	30	1200	3000
O=C(Nc1ccncc1F)c1cn(CC2CC2)c2cccnc12 [Example 18, 1-(cycloproylmethyl)-N-(3-fluoropyridin-4-yl)-1H-pyrrolo[3,2-b]pyridine-3-carboxamide]	26 to 50	–	–	–	–	–	–
O=C(Nc1ccncc1F)c1cn(CC2CC2)c2ccccc12 [Example 13, 1-(cyclopropylmethyl)-N-(3-fluoropyridin-4-yl)-11/-indole-3-carboxamide]	> 75	63	31	67	53	–	–
O=C(Nc1c(F)cncc1F)c1cn(CC2CC2)c2ccccc12 [Example 3, 1-(cyclopropylmethyl)-N-(3,5-difluoropyridin-4-yl)-1H-indole-3-carboxamide]	51 to 75	66	37	–	–	–	–
